Laboratory results as given in patent publication US4250329A, “Carbonylation process” (priority 1979, dated 1981).
Several values for one entry are separate records, joined by “and”; a condition that tells them apart may be missing. Equal entries are not always repeated. Where two headings read alike, the source gives them in different places.

How the values were obtained:
[1] = Carbonylation of methanol to methyl acetate; parameters: methyl acetate (drawing 15) produced: unit not given here; conditions: for % Conversion (Table II) / % Selectivity (Table II; additional product was dimethyl ether): 1000 psi; for methyl acetate (drawing 15) produced / CH3 OH consumed: 20 hour; for methyl acetate (drawing 17): the values are: methyl acetate volume produced
Description: (THF)4 Mg[Co(CO)3 P(C4 H9)3 ]2 +CH3 I catalyst system
Reaction conditions: 175° C., 1000 psi

[2] = Carbonylation of methanol to methyl acetate; conditions: 175° C.
[3] = Hydroformylation of propylene; conditions: 133 °C
Text: [table 17: the next 25 blocks are its lines as printed, fixed-width]

[4] = Description: This conversion is run at elevated pressures, preferably from 1,500 to 3,000 psi. Reaction temperatures will range from 50° C. to 200° C., with a range of 100° C. to 150° C. preferred. Ratio of H2 to CO used will vary with reaction conditions; preferably a 1 to 1 ratio is maintained. The catalyst concentration will range from 0.01 to 20% based on the weight feed, with 0.05 to 10% preferred.
30 ml. of hexene-1, 20 ml. of benzene, and 0.3 gm. […] The bomb was heated to 140° C. and held until the reaction was complete.

[5] = catalyst 2.0 mmole, CH3I 8.0 mmole, 67 hour, 175° C.
[6] = CH3I 1.6 mmole, 18 hr, 175° C., 1000 psi CO, no reaction occurs
[7] = CH3I 4.0 mmole, 18 hr, 175° C., 1000 psi CO
[8] = CH3I 6.0 mmole, 18 hr, 175° C., 1000 psi CO
[9] = CH3I 8.0 mmole, 3.25 hr, 175° C., 4000 psig CO
[10] = CH3I 8.0 mmole, 18 hr, 175° C., 1000 psi CO
[11] = CH3I 12.0 mmole, 18 hr, 175° C., 1000 psi CO
[12] = CH3I 16.0 mmole, 18 hr, 175° C., 1000 psi CO
[13] = CH3I 48.0 mmole, 17 hr, 175° C., 1000 psi CO
[14] = cocatalyst 8.0 mmole, 18 hr, 1.0 mmole catalyst, 175° C., 1000 psi CO
[15] = cocatalyst 8.0 mmole, 19 hr, 1.0 mmole catalyst, 175° C., 1000 psi CO
[16] = 1500 psi 1:1 H2:CO, 140° C., 0.3 gm catalyst
[17] = cocatalyst 8.0 mmole, 90 hr, 1.0 mmole catalyst, 175° C., 1000 psi CO
[18] = catalyst 1.0 mmole, CH3I 8.0 mmole, 21 hour, 175° C.

CC(=O)[CH-]C(C)=O.CC(=O)[CH-]C(C)=O.CC(=O)[CH-]C(C)=O.[Co+3] [Co(C5 H7 O2)3]
% Conversion (Table II) [1, 5]: 16% | % Selectivity (Table II; additional product was dimethyl ether) [1, 5]: 23%

CI [CH3 I, methyl iodide]
% Conversion to Methyl Acetate (Table IV) [1, 6]: 0.0% | % Selectivity to Methyl Acetate (Table IV) [1, 6]: 0.0% | methyl acetate (drawing 15) produced ([1]; CH3I 1.6 mmole, 1.0 mmole catalyst, 1000 psi CO, 175° C.): 0.5 | CH3 OH consumed ([1]; CH3I 1.6 mmole, 1000 psi CO, 175° C.): 1.2 mL | % Conversion to Methyl Acetate (Table IV) [1, 7]: 22% | % Selectivity to Methyl Acetate (Table IV) [1, 7]: 100% | % Conversion to Methyl Acetate (Table IV) [1, 8]: 24% | % Selectivity to Methyl Acetate (Table IV) [1, 8]: 100% | % Conversion to Methyl Acetate (Table IV) [1, 9]: 29% | % Selectivity to Methyl Acetate (Table IV) [1, 9]: 97% | % Conversion to Methyl Acetate (Table IV) [1, 10]: 24% | % Selectivity to Methyl Acetate (Table IV) [1, 10]: 85% | methyl acetate (drawing 15) produced ([1]; CH3I 8.0 mmole, 1.0 mmole catalyst, 1000 psi CO, 175° C.): 22.4 | CH3 OH consumed ([1]; CH3I 8.0 mmole, 1000 psi CO, 175° C.): 30.0 mL | % Conversion to Methyl Acetate (Table IV) [1, 11]: 5.4% | % Selectivity to Methyl Acetate (Table IV) [1, 11]: 15% | % Selectivity to Methyl Acetate (Table IV) ([1]; CH3I 16.0 mmole, 4.25 hr, 175° C., 4000 psig CO): 74% | % Conversion to Methyl Acetate (Table IV) [1, 12]: 4.5% | % Selectivity to Methyl Acetate (Table IV) [1, 12]: 12% | methyl acetate (drawing 15) produced ([1]; CH3I 16.0 mmole, 1.0 mmole catalyst, 1000 psi CO, 175° C.): 4.5 | CH3 OH consumed ([1]; CH3I 16.0 mmole, 1000 psi CO, 175° C., CH3OH is dehydrated to CH3OCH3): 45.0 mL | % Conversion to Methyl Acetate (Table IV) [1, 13]: 0.0% | % Selectivity to Methyl Acetate (Table IV) [1, 13]: 0.0% | conversion to CH3 OCH3 [1, 13]: 100% | methyl acetate (drawing 15) produced ([1]; CH3I 48.0 mmole, 1.0 mmole catalyst, 1000 psi CO, 175° C.): 1.2 | CH3 OH consumed ([1]; CH3I 48.0 mmole, 1000 psi CO, 175° C., CH3OH is dehydrated to CH3OCH3): 90. ml | % Selectivity to Methyl Acetate (Table III) ([1]; cocatalyst 8.0 mmole, 3.25 hr, 1.0 mmole catalyst, 175° C., 4000 psi CO): 97% | % Conversion to Methyl Acetate (Table III) [1, 14]: 24% | % Selectivity to Methyl Acetate (Table III) [1, 14]: 85% | % Conversion to Methyl Acetate (Table III) ([1]; cocatalyst 16.0 mmole, 4.25 hr, 1.0 mmole catalyst, 175° C., 4000 psi CO): 25% | methyl acetate (drawing 17) [1]: 19.8 mL and 29.6 mL and 21.4 mL | % Conversion to Methyl Acetate (Table IV) ([2]; CH3I 16.0 mmole, 4.25 hr, 4000 psig CO): 25% | % Conversion to Methyl Acetate (Table III) ([2]; cocatalyst 8.0 mmole, 3.25 hr, 1.0 mmole catalyst, 4000 psi CO): 29% | % Selectivity to Methyl Acetate (Table III) ([2]; cocatalyst 16.0 mmole, 4.25 hr, 1.0 mmole catalyst, 4000 psi CO): 74%

I [HI]
% Conversion to Methyl Acetate (Table III) [1]: 8% | % Selectivity to Methyl Acetate (Table III) [1]: 47% | methyl acetate (drawing 17) [1]: 6.6 mL

[C-]#[O+].[Cl-].[Rh].c1ccc(P(c2ccccc2)c2ccccc2)cc1.c1ccc(P(c2ccccc2)c2ccccc2)cc1 [((C6 H5)3 P)2 Rh(CO)Cl]
t1/2 ([3]; 1n 2/k): 9.32 min | k (pseudo 1st order reaction rate constant) ([3]; 1000 psig CO/H2 50/50): 0.0744 min⁻¹ | n-C4 H8 O (percent straight chain isomer) ([3]; 1000 psig CO/H2 50/50, benzene, 0.5 mmoles catalyst based on Rh): 56%

CCI [CH3 CH2 I]
% Conversion to Methyl Acetate (Table III) [1, 15]: 20% | % Selectivity to Methyl Acetate (Table III) [1, 15]: 85% | methyl acetate (drawing 17) [1]: 17.5 mL

CBr [CH3 Br]
activity as cocatalyst [1]: inactive

tetrakis tetrahydrofuran adduct of a magnesium-dicobalt hexacarbonyl bismethyldiphenylphosphine complex [(C4 H8 O)4 Mg[Co(CO)3 PCH3 (C6 H5)2]2]
hexene-1 converted to C7 aldehydes and C7 alcohols [4, 16]: 99% | reacted product that was an aldehyde [4, 16]: 87% | conversion of 1-hexene to heptaldehydes ([4]; elevated pressures): > 99% | selectivity, 1-hexene to heptaldehydes ([4]; elevated pressures): 87%

Ic1ccccc1 [C6 H5 I]
% Conversion to Methyl Acetate (Table III) [1, 17]: 25% | % Selectivity to Methyl Acetate (Table III) [1, 17]: 52% | methyl acetate (drawing 17) ([1]; cocatalyst 8.0 mmole, 1000 psi CO, 175° C., 90 hours): 22.3 mL

[I-].[Li+] [LiI]
% Conversion to Methyl Acetate (Table III) [1]: 0.6% | % Selectivity to Methyl Acetate (Table III) [1]: 100% | methyl acetate (drawing 17) [1]: 1 mL

[C-]#[O+].[C-]#[O+].[C-]#[O+].[C-]#[O+].[C-]#[O+].[C-]#[O+].[C-]#[O+].[C-]#[O+].[Co].[Co] [Co2 (CO)8]
% Conversion (Table II) [1, 18]: 3.5% | % Selectivity (Table II; additional product was dimethyl ether) [1, 18]: 6.4%
